ChEMBL document CHEMBL3091433, “Structure-based design of substituted hexafluoroisopropanol-arylsulfonamides as modulators of RORc” (Bioorg Med Chem Lett, 2013)

Columns and labels:
[1] = target: T1, Nuclear receptor ROR-gamma (Homo sapiens, UniProt P51449)
T1 sequence (P51449 whole entry): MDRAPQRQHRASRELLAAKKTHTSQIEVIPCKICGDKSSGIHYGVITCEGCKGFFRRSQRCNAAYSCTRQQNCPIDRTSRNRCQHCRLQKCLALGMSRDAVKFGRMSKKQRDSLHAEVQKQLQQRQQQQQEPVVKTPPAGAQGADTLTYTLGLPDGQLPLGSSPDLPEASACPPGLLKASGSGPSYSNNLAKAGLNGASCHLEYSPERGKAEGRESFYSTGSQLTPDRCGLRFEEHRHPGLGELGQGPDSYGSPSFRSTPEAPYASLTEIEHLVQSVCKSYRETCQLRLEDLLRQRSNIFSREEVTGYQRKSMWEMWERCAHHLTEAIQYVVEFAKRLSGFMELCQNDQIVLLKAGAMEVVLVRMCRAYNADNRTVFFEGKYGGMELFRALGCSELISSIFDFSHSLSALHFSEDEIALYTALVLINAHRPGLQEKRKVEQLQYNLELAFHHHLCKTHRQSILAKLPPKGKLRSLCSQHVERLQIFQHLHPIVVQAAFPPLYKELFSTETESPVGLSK
Description: Inverse agonist activity at N-terminal 6xHis-tagged human RORc ligand binding domain (241 to 486) expressed in bacterial expression system assessed as inhibition of SRC1 co-activator peptide recruitment after 3 hrs by TR-FRET analysis

[2] = target: T1, Nuclear receptor ROR-gamma; remark: listed apart in the source
Description: Displacement of [3H2]-25-hydroxycholesterol from N-terminal 6xHis-tagged human RORc ligand binding domain (241 to 486) expressed in bacterial expression system after 3 hrs by scintillation counting analysis

[3] = system: PBMC; assay: Cytotoxicity against human PBMC assessed as effect on cell physiology after 48 hrs by CellTiter-Glo assay
[4] = system: PBMC; assay: Inhibition of IFNgamma production in human PBMC after 48 hrs by Sandwich ELISA
[5] = system: PBMC; assay: cells; conditions: Homo sapiens, 48 h
[6] = system: PBMC; assay: Antiinflammatory activity in human PBMC assessed as inhibition of IL-17 production after 48 hrs by Sandwich ELISA relative to control; type: functional

SMILES	EC50 [1] [nM]	IC50 [2] [nM]	also measured
O=S(=O)(c1ccccc1)N1CCc2cc(C(O)(C(F)(F)F)C(F)(F)F)ccc21	5000	883	
N#Cc1ccccc1S(=O)(=O)N(CC(F)(F)F)c1ccc(C(O)(C(F)(F)F)C(F)(F)F)cc1	920	520	
O=S(=O)(c1ccccc1)N(CCC(F)(F)F)c1ccc(C(O)(C(F)(F)F)C(F)(F)F)cc1	4000	519	
O=C(Nc1ccc(C(O)(C(F)(F)F)C(F)(F)F)cc1)c1ccc(C(F)(F)F)cc1	> 10000	> 10000	
O=S(=O)(c1ccccc1)N(CC(F)(F)F)c1ccc(C(O)(C(F)(F)F)C(F)(F)F)cc1 [T091317]			EC50 [3]: > 20000 nM; EC50 [4]: > 20000 nM; EC50 [5]: 3000 nM; Imax [6]: 81%
CC(=O)Nc1nc(C)c(S(=O)(=O)Nc2ccc(C(O)(C(F)(F)F)C(F)(F)F)cc2)s1	911	2000	
O=S(=O)(Nc1ccc(C(O)(C(F)(F)F)C(F)(F)F)cc1)c1ccccc1		> 10000	
O=S(=O)(C1CC1)N(CC(F)(F)F)c1ccc(C(O)(C(F)(F)F)C(F)(F)F)cc1		5000	
Cc1ccc(S(=O)(=O)N(CC(F)(F)F)c2ccc(C(O)(C(F)(F)F)C(F)(F)F)cc2)cc1	20	51	
O=C(c1ccccc1)N(CC(F)(F)F)c1ccc(C(O)(C(F)(F)F)C(F)(F)F)cc1	4000	2000	
COCCN(c1ccc(C(O)(C(F)(F)F)C(F)(F)F)cc1)S(=O)(=O)c1ccccc1	> 10000	3000	
N#Cc1cccc(S(=O)(=O)N(CC(F)(F)F)c2ccc(C(O)(C(F)(F)F)C(F)(F)F)cc2)c1	100	190	
O=S(=O)(c1ccccc1)N(CCO)c1ccc(C(O)(C(F)(F)F)C(F)(F)F)cc1	1000	4000	
O=C(Nc1ccc(C(O)(C(F)(F)F)C(F)(F)F)cc1)c1ccccc1	> 10000	> 10000	
CCN(c1cccc(C(O)(C(F)(F)F)C(F)(F)F)c1)S(=O)(=O)c1ccccc1	900	329	
O=C(O)CCN(c1ccc(C(O)(C(F)(F)F)C(F)(F)F)cc1)S(=O)(=O)c1ccccc1	> 10000	> 10000	

Now from value to compound, other results behind:

EC50 [1] [nM]	IC50 [2] [nM]	SMILES	also measured
> 10000	9000	NS(=O)(=O)c1ccc(N(CC(F)(F)F)S(=O)(=O)c2ccccc2)cc1	
> 10000	> 10000	NC(=O)c1ccc(N(CC(F)(F)F)S(=O)(=O)c2ccccc2)cc1	
> 10000	> 10000	CC(=O)NCCN(c1ccc(C(O)(C(F)(F)F)C(F)(F)F)cc1)S(=O)(=O)c1ccccc1	
9000	900	COC(c1ccc(N(CC(F)(F)F)S(=O)(=O)c2ccccc2)cc1)(C(F)(F)F)C(F)(F)F	
> 10000	> 10000	CS(=O)(=O)CCN(c1ccc(C(O)(C(F)(F)F)C(F)(F)F)cc1)S(=O)(=O)c1ccccc1	
> 10000	> 10000	O=S(=O)(c1ccccc1)N(CC(F)(F)F)c1ccc(CO)cc1	
> 10000	> 10000	O=C(O)c1ccc(N(CC(F)(F)F)S(=O)(=O)c2ccccc2)cc1	
1000	748	O=S(=O)(c1cccnc1)N(CC(F)(F)F)c1ccc(C(O)(C(F)(F)F)C(F)(F)F)cc1	
> 2000	520	O=S(=O)(Cc1ccccc1)N(CC(F)(F)F)c1ccc(C(O)(C(F)(F)F)C(F)(F)F)cc1	
8000	467	O=S(=O)(c1ccccc1)N(Cc1ccccc1)c1ccc(C(O)(C(F)(F)F)C(F)(F)F)cc1	
